Experiment [1] concerns SH5190. The class given is cell-based, A/Shanghai/5190/2013(H7N9).
For experiment [2], the system named is SH5190. The class given is cell-based, A/Shanghai/5190/2013(H7N9). The source holds these as a separate data set.

Regarding `CC(=O)Oc1ccccc1C(=O)Nc1ncc([N+](=O)[O-])s1` [NT-300, nitazoxanide], in experiment [1], the “times more potent than T-705 and ribavirin” value was “over 25 times”. Take `CCC(CC)O[C@@H]1C=C(C(=O)O)C[C@H](N)[C@H]1NC(C)=O` [Oseltamivir carboxylate]: the plaque mean diameter in experiment [2] is < 0.1 mm.
